From BindingDB's records for doi:10.1016/j.ejmech.2021.113556 (Zhejiang University, 2021) come the findings set out here.

Assay [1] addresses Proteasome subunit beta type-6 (Homo sapiens) (UniProt P28072). Description: Inhibition of caspase-like activity of human proteasome beta-1c subunit using SUC-LLE-AMC as flurogenic substrate preincubated for 15 mins followed by substrate addition and measured after 1 hr by fluorescence assay.
The target in assay [2] is Proteasome subunit beta type-7 (Homo sapiens) (UniProt Q99436). As to the kind of experiment: Inhibition of human trypsin-like activity of 20s proteasome beta 2c subunit using SUC-KQL-AMC as flurogenic substrate preincubated for 15 mins followed by substrate addition and measured after 1 hr by fluorescence assay.
Proteasome subunit beta type-7 (Homo sapiens), sequence (Q99436 whole entry, looked up): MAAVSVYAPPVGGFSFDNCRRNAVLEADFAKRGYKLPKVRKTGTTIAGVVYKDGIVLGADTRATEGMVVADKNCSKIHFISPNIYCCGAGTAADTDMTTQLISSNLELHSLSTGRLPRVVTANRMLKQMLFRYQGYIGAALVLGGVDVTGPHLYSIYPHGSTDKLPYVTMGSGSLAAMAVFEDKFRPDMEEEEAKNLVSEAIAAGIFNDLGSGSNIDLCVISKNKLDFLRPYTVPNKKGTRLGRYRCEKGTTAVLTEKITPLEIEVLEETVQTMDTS

Proteasome subunit beta type-6 (Homo sapiens), sequence (P28072 whole entry, looked up): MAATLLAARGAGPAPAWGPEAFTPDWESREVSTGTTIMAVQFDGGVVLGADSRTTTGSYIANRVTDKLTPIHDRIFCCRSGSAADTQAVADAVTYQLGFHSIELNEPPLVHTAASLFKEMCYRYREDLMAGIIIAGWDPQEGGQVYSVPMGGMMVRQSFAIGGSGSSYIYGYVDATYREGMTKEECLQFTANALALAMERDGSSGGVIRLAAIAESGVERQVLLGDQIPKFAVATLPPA

For orientation: IC50 means the concentration that gives 50% inhibition. Read a low IC50 as inhibition by little substance. Turning to `C[C@H](NC(=O)N1CCC(NC(=O)c2nccs2)CC1)C(=O)N[C@@H](Cc1c[nH]c2ccccc12)C(=O)N[C@@H](Cc1ccccc1)C(=O)[C@@]1(C)CO1`, the IC50 in assay [1] is 4.36 µM; in assay [2], greater than 10 µM.
The corresponding values for `COc1ccc(C[C@H](NC(=O)[C@@H](C)NC(=O)N2CCC(OC)CC2)C(=O)N[C@@H](Cc2ccccc2)C(=O)[C@@]2(C)CO2)cc1` are greater than 10 µM and greater than 10 µM.
In the case of `COc1ccc(C[C@H](NC(=O)[C@@H](C)NC(=O)N2CC[C@H](OC)C2)C(=O)N[C@@H](Cc2ccccc2)C(=O)[C@@]2(C)CO2)cc1`, the IC50 in assay [1] and in assay [2] was greater than 10 µM throughout.
For `COc1ccc(C[C@H](NC(=O)[C@@H](C)NC(=O)N2CCC[C@@H](OC)C2)C(=O)N[C@@H](Cc2ccccc2)C(=O)[C@@]2(C)CO2)cc1`, the IC50 in assay [1] and in assay [2] was greater than 10 µM throughout.
